Assay results taken from PubChem BioAssay AID192 (DTP/NCI, 2004).
Where “and” joins values, the source holds several entries; their conditions need not be identical. Equal entries are not always repeated. Toxic doses and inconclusive results are not listed. Rule for the calls: active = survival T/C of 150% or more; inactive = T/C below 125% in these data.

Test system: BDF1 mice, B16 melanoma ip, median survival T/C
Experiment: NCI In Vivo Anticancer Drug Screen. Data for tumor model B16 Melanoma (intraperitoneal) in B6D2F1 (BDF1) mice
Settings: endpoint: median survival time, higher = longer survival
Summary of the method: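 Read-out: survival or tumor size, given as treated/control ratio. Controls received vehicle only; animals bore transplantable tumors.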

[1] = dose: 100.0 mg/kg/injection, schedule: Q01DX009 (ip), vehicle: saline with Tween-80
[2] = dose: 100.0 mg/kg/injection, schedule: Q04DX003 (ip), vehicle: saline with Tween-80
[3] = dose: 200.0 mg/kg/injection, schedule: Q01DX009 (ip), vehicle: saline with Tween-80
[4] = dose: 200.0 mg/kg/injection, schedule: Q04DX003 (ip), vehicle: saline with Tween-80
[5] = dose: 6.25 mg/kg/injection, schedule: Q01DX009 (ip), vehicle: saline
[6] = dose: 12.5 mg/kg/injection, schedule: Q01DX009 (ip), vehicle: saline
[7] = dose: 25.0 mg/kg/injection, schedule: Q01DX009 (ip), vehicle: saline
[8] = dose: 3.13 mg/kg/injection, schedule: Q01DX009 (ip), vehicle: saline with Tween-80
[9] = dose: 6.25 mg/kg/injection, schedule: Q01DX009 (ip), vehicle: saline with Tween-80
[10] = dose: 12.5 mg/kg/injection, schedule: Q01DX009 (ip), vehicle: saline with Tween-80
[11] = dose: 25.0 mg/kg/injection, schedule: Q01DX009 (ip), vehicle: saline with Tween-80
[12] = dose: 50.0 mg/kg/injection, schedule: Q01DX009 (ip), vehicle: saline with Tween-80
[13] = dose: 50.0 mg/kg/injection, schedule: Q01DX009 (ip), vehicle: saline
[14] = dose: 200.0 mg/kg/injection, schedule: Q01DX009 (ip), vehicle: saline
[15] = dose: 40.0 mg/kg/injection, schedule: Q01DX009 (ip), vehicle: saline with Tween-80
[16] = dose: 80.0 mg/kg/injection, schedule: Q01DX009 (ip), vehicle: saline with Tween-80
[17] = dose: 100.0 mg/kg/injection, schedule: Q01DX009 (ip), vehicle: Klucel (hydroxypropylcellulose) (HPC)
[18] = dose: 200.0 mg/kg/injection, schedule: Q01DX009 (ip), vehicle: Klucel (hydroxypropylcellulose) (HPC)
[19] = dose: 400.0 mg/kg/injection, schedule: Q01DX009 (ip), vehicle: Klucel (hydroxypropylcellulose) (HPC)
[20] = dose: 12.5 mg/kg/injection, schedule: Q01DX009 (ip), vehicle: Klucel (hydroxypropylcellulose) (HPC)
[21] = dose: 25.0 mg/kg/injection, schedule: Q01DX009 (ip), vehicle: Klucel (hydroxypropylcellulose) (HPC)
[22] = dose: 5.0 mg/kg/injection, schedule: Q01DX009 (ip), vehicle: saline with Tween-80
[23] = dose: 10.0 mg/kg/injection, schedule: Q01DX009 (ip), vehicle: saline with Tween-80
[24] = dose: 20.0 mg/kg/injection, schedule: Q01DX009 (ip), vehicle: saline with Tween-80
[25] = dose: 50.0 mg/kg/injection, schedule: Q01DX009 (ip), vehicle: Klucel (hydroxypropylcellulose) (HPC)

Measured: T/C

CCC[CH2][Sn]([CH2]CCC)([S]C#N)[S]C#N
inactive: dose: 0.75 mg/kg/injection, schedule: Q01DX009 (ip), vehicle: saline with Tween-80 98 % of control | dose: 1.5 mg/kg/injection, schedule: Q01DX009 (ip), vehicle: saline with Tween-80 101 % of control | dose: 3.0 mg/kg/injection, schedule: Q01DX009 (ip), vehicle: saline with Tween-80 98 % of control

CCOC(=O)C(=CN1CCCC1)C(=O)OCC
inactive: [1] 102 % of control | [2] 120 % of control | [3] 105 % of control | [4] 117 % of control | dose: 400.0 mg/kg/injection, schedule: Q01DX009 (ip), vehicle: saline with Tween-80 91 % of control | dose: 400.0 mg/kg/injection, schedule: Q04DX003 (ip), vehicle: saline with Tween-80 111 % of control

CNCCC=C1c2ccccc2CCc2ccccc21
inactive: [5] 102 % of control | [6] 97 % of control | [7] 102 % of control

Cc1ccc(NC(=O)COc2ccc(Cl)cc2)c(C)c1
inactive: [8] 119 % of control | [9] 107 % of control | [10] 97 % of control | [11] 95 % of control | [12] 91 % of control

CCOC(=O)CCc1ccc(O)c(O)c1
inactive: dose: 37.5 mg/kg/injection, schedule: Q04DX003 (ip), vehicle: saline 102 % of control | [13] 113 % of control | dose: 75.0 mg/kg/injection, schedule: Q04DX003 (ip), vehicle: saline 102 % of control | dose: 100.0 mg/kg/injection, schedule: Q01DX009 (ip), vehicle: saline 110 % of control | dose: 150.0 mg/kg/injection, schedule: Q04DX003 (ip), vehicle: saline 97 % of control | [14] 97 % of control

[Cl][Pt+2][Cl].[NH-]c1cc(Cl)c(Cl)cc1[NH-]
inactive: [15] 114 % of control | [16] 118 % of control | dose: 320.0 mg/kg/injection, schedule: Q01DX009 (ip), vehicle: saline with Tween-80 113 % of control

Cc1cc(C)cc(-n2nnc3ccccc3c2=O)c1
inactive: [17] 108 % of control | dose: 100.0 mg/kg/injection, schedule: Q04DX003 (ip), vehicle: Klucel (hydroxypropylcellulose) (HPC) 95 % of control | [18] 100 % of control | dose: 200.0 mg/kg/injection, schedule: Q04DX003 (ip), vehicle: Klucel (hydroxypropylcellulose) (HPC) 91 % of control | [19] 86 % of control | dose: 400.0 mg/kg/injection, schedule: Q04DX003 (ip), vehicle: Klucel (hydroxypropylcellulose) (HPC) 93 % of control

Cc1cccc(C)c1C1=NCCN1
inactive: [10] 95 % of control | [11] 95 % of control | [12] 93 % of control

C1=CCOCOC1
inactive: dose: 12.5 mg/kg/injection, schedule: Q04DX003 (ip), vehicle: saline 96 % of control | dose: 25.0 mg/kg/injection, schedule: Q04DX003 (ip), vehicle: saline 107 % of control | dose: 50.0 mg/kg/injection, schedule: Q04DX003 (ip), vehicle: saline 93 % of control

S=P(NCCNP(=S)(N1CC1)N1CC1)(N1CC1)N1CC1
inactive: [20] 118 % of control | [21] 124 % of control

CCCCCCCCC(O)CCCCC (configuration not stated)
inactive: [17] 100 % of control | [18] 94 % of control | [19] 98 % of control

[Cl][Pt+2][Cl].[NH-]c1ccc([N+](=O)[O-])cc1[NH-]
inactive: [22] 103 % of control | [23] 107 % of control | [24] 107 % of control | [15] 118 % of control | [16] 115 % of control

COc1ccc(CN(CCN(C)C)c2ccccn2)cc1
inactive: [20] 100 % of control | [21] 96 % of control | [25] 93 % of control

CCOc1ccc(NC(=O)C2CCC(C)(C(=O)O)C2(C)C)cc1 (configuration not stated)
inactive: dose: 66.0 mg/kg/injection, schedule: Q01DX009 (ip), vehicle: saline with Tween-80 88 % of control | [1] 100 % of control | dose: 150.0 mg/kg/injection, schedule: Q01DX009 (ip), vehicle: saline with Tween-80 113 % of control

O=c1[nH]cc(B(O)O)c(=O)[nH]1
inactive: [14] 118 % of control

COC(=O)C1(C(=O)OC)CC1CCl (configuration not stated)
inactive: [2] 90 % of control | [4] 96 % of control

Cc1cc(=O)[nH]c(N/N=C/c2ccccc2O)n1
inactive: [21] 93 % of control | [25] 87 % of control | [17] 87 % of control | [18] 87 % of control

COc1cc2ccc(/C=N/NC(N)=S)cc2cc1OC
inactive: dose: 25.0 mg/kg/injection, schedule: Q01DX009 (ip), vehicle: other 117 % of control | dose: 50.0 mg/kg/injection, schedule: Q01DX009 (ip), vehicle: other 108 % of control | dose: 100.0 mg/kg/injection, schedule: Q01DX009 (ip), vehicle: other 109 % of control | dose: 200.0 mg/kg/injection, schedule: Q01DX009 (ip), vehicle: other 96 % of control

CCC1CN2C(=N1)c1ccccc1-c1cc(Cl)ccc12 (configuration not stated)
inactive: dose: 6.25 mg/kg/injection, schedule: Q01DX009 (ip), vehicle: suspension in saline 95 % of control | dose: 10.0 mg/kg/injection, schedule: Q01DX009 (ip), vehicle: saline 94 % of control | dose: 12.5 mg/kg/injection, schedule: Q01DX009 (ip), vehicle: suspension in saline 109 % of control | dose: 20.0 mg/kg/injection, schedule: Q01DX009 (ip), vehicle: saline 118 % of control
active: dose: 40.0 mg/kg/injection, schedule: Q01DX009 (ip), vehicle: saline 150 % of control | dose: 50.0 mg/kg/injection, schedule: Q01DX009 (ip), vehicle: suspension in saline 157 % of control

C=COC(=O)CCCCCCCCCCCCCCCCC
inactive: dose: 20.0 mg/kg/injection, schedule: Q01DX009 (ip), vehicle: Klucel (hydroxypropylcellulose) (HPC) 94 % of control | dose: 40.0 mg/kg/injection, schedule: Q01DX009 (ip), vehicle: Klucel (hydroxypropylcellulose) (HPC) 94 % of control | dose: 80.0 mg/kg/injection, schedule: Q01DX009 (ip), vehicle: Klucel (hydroxypropylcellulose) (HPC) 92 % of control

CN(C)CCCn1c2c(c3ccccc31)CCCCCC2
inactive: dose: 3.12 mg/kg/injection, schedule: Q01DX009 (ip), vehicle: saline 119 % of control | [5] 100 % of control | [6] 100 % of control | [7] 113 % of control | [13] 94 % of control

O=C(O)CNc1ccccc1C(=O)O
inactive: [25] 108 % of control | [17] 94 % of control | [18] 91 % of control

CC(=O)OC1CCC2(C)C(CCC3C2C(=O)C(OC(C)=O)C2(C)C3CC3OC4(CCC(C)CO4)C(C)C32)C1 (configuration not stated)
inactive: dose: 1.56 mg/kg/injection, schedule: Q01DX009 (ip), vehicle: saline with Tween-80 98 % of control | [8] 108 % of control | [9] 91 % of control and 93 % of control | [11] 89 % of control

O=[N+]([O-])c1ccc(Cl)c([N+](=O)[O-])c1
inactive: [22] 100 % of control and 112 % of control | [23] 94 % of control and 99 % of control | [24] 99 % of control and 102 % of control | [15] 98 % of control and 107 % of control | [16] 100 % of control and 108 % of control

CC(Cc1ccccc1)NC(C#N)c1ccccc1 (configuration not stated)
inactive: dose: 6.25 mg/kg/injection, schedule: Q01DX009 (ip), vehicle: Klucel (hydroxypropylcellulose) (HPC) 100 % of control | [20] 87 % of control | [21] 90 % of control

COc1c2c(cc3c1C(Cl)N(C)CC3)OCO2 (configuration not stated)
inactive: [6] 96 % of control | [7] 110 % of control | [13] 106 % of control

Cc1ccc(NC(=O)c2ccccc2Cl)cc1
inactive: [1] 105 % of control | [3] 97 % of control

O=c1c(O)c(-c2cc(O)c(O)c(O)c2)oc2cc(O)cc(O)c12
inactive: dose: 25.0 mg/kg/injection, schedule: Q02DX009 (ip), vehicle: saline with Tween-80 95 % of control | dose: 50.0 mg/kg/injection, schedule: Q02DX009 (ip), vehicle: saline with Tween-80 110 % of control | dose: 100.0 mg/kg/injection, schedule: Q02DX009 (ip), vehicle: saline with Tween-80 105 % of control
